Values joined by “and” are separate entries in the source; they are usually repeats but may differ in a detail not shown here. Equal values may be shown once.
Columns and labels:
PPM1DΔhinge = molecular target: T1, PPM1DΔhinge (Homo sapiens, UniProt O15297, DEL155-163/G166S/M164G/T165G); test: FDP (fluorescein diphosphate) enzymatic assay; format: biochemical; conditions: for FDP Assay, signal relative to 0 nM GSK (=100): PPM1DΔHinge, individual runs, listed as GSK
T1 construct: PPM1D1–154-GGS-167–420 (PPM1D∆hinge); His(6)-SUMO (N, cleaved yes); made in house; host or cells: E. coli BL21 (DE3)
T1 sequence (O15297 with tags, fused parts or gaps DEL155-163/M164G/T165G/G166S): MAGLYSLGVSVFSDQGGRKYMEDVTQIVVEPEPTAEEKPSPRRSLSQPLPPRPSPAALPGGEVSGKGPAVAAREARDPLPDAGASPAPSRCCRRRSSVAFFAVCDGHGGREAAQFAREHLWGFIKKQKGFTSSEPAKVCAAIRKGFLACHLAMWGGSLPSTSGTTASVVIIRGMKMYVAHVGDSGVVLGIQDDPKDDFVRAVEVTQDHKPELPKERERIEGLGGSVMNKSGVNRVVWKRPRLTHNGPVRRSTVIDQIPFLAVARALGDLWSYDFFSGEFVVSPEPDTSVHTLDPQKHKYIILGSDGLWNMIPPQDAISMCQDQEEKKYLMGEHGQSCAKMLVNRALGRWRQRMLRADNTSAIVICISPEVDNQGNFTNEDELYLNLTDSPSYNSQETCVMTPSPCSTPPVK
Procedure: The FDP assay was adapted from reported protocol with minor modifications. Fluorescein diphosphate tetra-ammonium salt (CAS 217305-49-2) was purchased from AAT Bioquest (Cat No.11600). The assay was carried out on a 384-well plate (Corning Cat No.3575) with assay buffer containing 50 mM Tris (pH 7.5), 50 mM NaCl, 30 mM MgCl2, 0.01% tween 20, and 2% DMSO. Reactions were initiated with the addition of FDP to a solution containing wild-type PPM1D or one of its variants, to a final concentration of 5 nM for PPM1D and 100 μM for FDP (or as indicated in Kcat/KM measurements). A fluorescent signal was detected on a Spectramax microplate reader (485/530 nm) for the next 15 min at room temperature with an interval for data collection of 45 s. For the IC50 measurement, the compound was pre-incubated with PPM1D for 1 h before addition of the substrate.

PPM1D1–420 = molecular target: T2, PPM1D1–420 (Homo sapiens, UniProt O15297); test: Isothermal titration calorimetry (ITC); format: binding; set-up: DH / DS: unit not given here; conditions: Fig 3F
T2 construct: PPM1D1–420 was PCR-amplified from the synthesized gene with BsaI sites; His(6)-SUMO (N, cleaved yes); made in house; host or cells: E. coli BL21 (DE3)
T2 sequence (O15297 1-420): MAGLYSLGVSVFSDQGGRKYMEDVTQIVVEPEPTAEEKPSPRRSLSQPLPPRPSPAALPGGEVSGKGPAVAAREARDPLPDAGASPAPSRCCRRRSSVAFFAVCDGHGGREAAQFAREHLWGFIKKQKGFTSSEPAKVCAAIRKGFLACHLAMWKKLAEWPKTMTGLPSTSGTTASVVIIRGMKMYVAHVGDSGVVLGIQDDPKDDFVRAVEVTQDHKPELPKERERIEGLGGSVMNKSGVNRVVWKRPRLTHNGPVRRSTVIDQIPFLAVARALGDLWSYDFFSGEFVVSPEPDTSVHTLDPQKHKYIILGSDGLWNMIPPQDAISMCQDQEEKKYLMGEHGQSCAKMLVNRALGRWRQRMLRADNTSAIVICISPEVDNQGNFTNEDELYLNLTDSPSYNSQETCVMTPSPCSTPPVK
Procedure: Assessments of the analog of GSK2830371 (analog 1d) binding to wild-type and mutant proteins were conducted using an Auto-iTC200 microcalorimeter (Malvern) (see section on synthesis of analog 1d below). The protein was dialyzed extensively into 25 mM HEPES (pH 7.4), 150 mM NaCl, 10 mM MgCl2 and 1 mM TCEP. The dialyzed protein was used to prepare fresh working solutions of protein (20 µM) and analog 1d (200 µM) in 2% DMSO (v/v) in the same buffer. Titrations were performed at 25 °C and consisted of a single initial injection of 0.4 µL, followed by 19 injections of 2 µL of compound into a sample cell containing wild-type or mutant PPM1D, with an interval of 150 s between successive injections. The reference power and stirring speed were set at […] and 1000 RPM, respectively. Heat of dilution and mixing were obtained from injections of analog 1d into ITC buffer lacking protein and subtracted from the integrated data before curve fitting. Thermodynamic data were analyzed using Origin 7.0 software and fitted by non-linear regression to the model for a single binding site.

Cc1ncc(Cl)cc1NCc1ccc(C(=O)N[C@@H](CC2CCCC2)C(=O)NC2CC2)s1 [GSK2830371]
increase of IC50 in FDP assay upon hinge deletion (PPM1DΔhinge; PPM1DΔhinge versus PPM1D1–420): 100 fold | FDP Assay, signal relative to 0 nM GSK (=100) (PPM1DΔhinge; [GSK] 9.76562 nM): 99.774 and 81.7509 | FDP Assay, signal relative to 0 nM GSK (=100) (PPM1DΔhinge; [GSK] 19.5312 nM): 74.1093 and 82.0598 | FDP Assay, signal relative to 0 nM GSK (=100) (PPM1DΔhinge; [GSK] 39.0625 nM): 92.7672 and 94.3849 | FDP Assay, signal relative to 0 nM GSK (=100) (PPM1DΔhinge; [GSK] 78.125 nM): 88.4223 and 95.7187 | FDP Assay, signal relative to 0 nM GSK (=100) (PPM1DΔhinge; [GSK] 156.25 nM): 86.3292 and 93.2128 | FDP Assay, signal relative to 0 nM GSK (=100) (PPM1DΔhinge; [GSK] 312.5 nM): 78.7193 and 77.5806 | FDP Assay, signal relative to 0 nM GSK (=100) (PPM1DΔhinge; [GSK] 625 nM): 74.7657 and 65.5885 | FDP Assay, signal relative to 0 nM GSK (=100) (PPM1DΔhinge; [GSK] 1250 nM): 60.0936 and 55.4697 | FDP Assay, signal relative to 0 nM GSK (=100) (PPM1DΔhinge; [GSK] 2500 nM): 47.8958 and 40.0931 | FDP Assay, signal relative to 0 nM GSK (=100) (PPM1DΔhinge; [GSK] 5000 nM): 6.587 and 19.2353 | FDP Assay, signal relative to 0 nM GSK (=100) (PPM1DΔhinge; [GSK] 10000 nM): 0.167 and 0.2855 | DH (PPM1D1–420; Average of 3 trials): -3090.67 | DS (PPM1D1–420; Average of 3 trials): 26.3 | DH (PPM1D1–420; individual trials): -2879 and -3158 and -3235 | DS (PPM1D1–420; individual trials): 27.7 and 25.8 and 25.4
